Data taken from patent US10201532B2, “Compounds and their use” (ALLECRA THERAPEUTICS GMBH, priority 2010, dated 2019).

Legend:
[1] = test system: K. pneumoniae ATCC 700603 (SHV18); assay: Disk zone of inhibition, antibiotic + Compound-1 on same disk (Methodology 2); assay type: cell-based, Klebsiella pneumoniae
Text: In this experiment, Compound-1 is used as a diagnostic reagent for the detection of β-lactamases belonging to the families KPC & ESBL (e.g., SHV18) producing Enterobacteriaceae. A simple set of absorbent paper disks impregnated with antibiotic on agar medium is used for the detection.
• 0.5 McFarland of the test organism was inoculated at 1:10 dilution on Muller • Hinton Agar plates • Test organisms: Klebsiella pneumoniae (K.p) ATCC BAA-1705, Klebsiella pneumoniae ATCC 700603, Escherichia coli (E.c) Ecoli233 • Carbapenem (e.g., Imipenem [IPM] 10 μg) and cephalosporin (e.g., Ceftazidime [CAZ] 30 μg) paper disks (7 mm) were placed on the inoculated agar plates • Compound-1 (60 μg) disk was placed at a distance of 7 & 10 mm from the carbapenem and cephalosporin disks. • The presence of expressed carbapenemases or ESBLs was measured as the expansion of Imipenem or Ceftazidime's inhibition zones due to synergy in the presence of Compound-1. Results:
The methodology remains the same as Methodology 1 except the following change • Compound-1 (60 μg) was added on the same disk in combination with a carbapenem (e.g., Imipenem 10 μg) or cephalosporin (e.g., Ceftazidime 30 μg) and placed on the inoculated agar plate. • The presence of the expressed carbapenemases or ESBLs was measured as an increase in Imipenem or Ceftazidime's zone diameter in combination with Compound-1 compared to antibiotic alone. Results

[2] = molecular target: T1, crude KPC-2 enzyme extract (Klebsiella pneumoniae, UniProt Q9F663); assay: β-Lactamase inhibitory assay with CENTA substrate; assay type: biochemical
T1 construct: enzyme extracts from KPC-2 producing and KPC-3 expressing bacterial gram negative strains were used; endogenous in cells; host or cells: KPC-2 producing gram-negative strain
Text: (§1) The Compound-1 was subjected to β-lactamase inhibitory assay to determine IC50 and to compare that with the comparator BLI agents as described elsewhere (Bebrone et. al., Antimicrob. Agents. Chemother, 2001, 45(6): 1868-1871; Jamieson et. al, Antimicrob. Agents. Chemother, 2003, 47(5): 1652-1657). Briefly, enzyme extracts from KPC-2 producing and KPC-3 expressing bacterial gram negative strains were used to study the β-lactamase inhibitory activity and determination of IC50 using CENTA as the substrate for β-lactamase.

[3] = molecular target: crude KPC-3 enzyme extract (UniProt Q9F663, H272Y, species not given); assay: β-Lactamase inhibitory assay with CENTA substrate; assay type: biochemical; details: also headed KPC2
Text: as §1

[4] = test system: KPC-3 expressing E. coli (J53 R6206); assay: Synergistic broth micro-dilution MIC (checkerboard); assay type: cell-based, Escherichia coli; details: for MIC: Escherichia coli, read-out: MIC of BLI alone, BLI alone
[5] = test system: KPC2 K. pneumoniae ATCC BAA 1705; assay: Neutropenic mice thigh infection model (human adapted model); assay type: in vivo; details: for Bacterial load (range), Doripenem + BLI: Doripenem 70 mg/kg fractionated + BLI 35 mg/kg bolus, end point 8 h
Method: Female Swiss Albino mice weighing 24-30 g were used for all studies. Study protocols were reviewed and approved by Institutional Animal Ethical Committee, Orchid Research Laboratories Limited. Mice were rendered neutropenic by intra-peritoneal cyclophosphamide injections. Log phase culture in brain heart infusion broth was injected in to mice thighs. Imipenem or Doripenen alone or in combination were administered sub-cutaneously in decreasing fractionated doses every 15 minutes over the period of 5.5 h (Flückiger, U. et al. “Integration of pharmacokinetics and pharmacodynamics of Imipenem in a human-adapted mouse model’. Antimicrobial Agents and Chemother, 1991, 35(9): 1905-1910). The Compound-1 or tazobactam was administered sub-cutaneously as bolus dose at the start of dosing. Efficacy end point was 6 h in Imipenem studies and 8 h in Doripenen studies.
Three experiments were carried out where Doripenen alone or in combination with compound-1 or tazobactam (two experiments) were evaluated. Doripenem 70 mg/kg was administered in fractionated doses over the period of 5.5 h (Fluckiger, U. et al. “Integration of pharmacokinetics and pharmacodynamics of Imipenem in a human-adapted mouse model’. Antimicrobial Agents and Chemother., 1991, 35(9): 1905-1910). Compound-1 or tazobactam was administered as bolus dose at initiation of therapy. Efficacy end point was 8 h after initiation of therapy.

[6] = test system: E. coli ATCC 25922 (β-lac-ve); assay: Disk zone of inhibition, antibiotic + Compound-1 on same disk (Methodology 2); assay type: cell-based, Escherichia coli
E. coli BAA-197 (TEM-12) = assay: MIC of Piperacillin with inhibitor, ESBL isolates; assay type: cell-based, Escherichia coli
E. coli BAA-201 (TEM-3) = assay: MIC of Piperacillin with inhibitor, ESBL isolates; assay type: cell-based
[7] = test system: P. mirabilis BAA-663 (TEM-89); assay: MIC of Piperacillin with inhibitor, ESBL isolates; assay type: cell-based
E. coli BAA-200 (SHV-4) = assay: MIC of Piperacillin with inhibitor, ESBL isolates; assay type: cell-based, Escherichia coli

Compound	IC50 [2] [µM]	IC50 [3] [µM]	MIC of Cefepime in combination with BLI ([4]; BLI at 2 μg/mL) [µg/mL]	MIC of Cefotaxime in combination with BLI ([4]; BLI at 2 μg/mL) [µg/mL]	MIC of Ceftazidime in combination with BLI ([4]; BLI at 2 μg/mL) [µg/mL]	MIC of Ceftobiprole in combination with BLI ([4]; BLI at 2 μg/mL) [µg/mL]	MIC of Imipenem in combination with BLI ([4]; BLI at 2 μg/mL) [µg/mL]	MIC of Meropenem in combination with BLI ([4]; BLI at 2 μg/mL) [µg/mL]	MIC of Cefepime in combination with BLI ([4]; BLI at 4 μg/mL) [µg/mL]	MIC of Cefotaxime in combination with BLI ([4]; BLI at 4 μg/mL) [µg/mL]	MIC of Ceftazidime in combination with BLI ([4]; BLI at 4 μg/mL) [µg/mL]	MIC of Ceftobiprole in combination with BLI ([4]; BLI at 4 μg/mL) [µg/mL]	MIC of Imipenem in combination with BLI ([4]; BLI at 4 μg/mL) [µg/mL]	MIC of Cefepime in combination with BLI ([4]; BLI at 8 μg/mL) [µg/mL]	MIC of Cefotaxime in combination with BLI ([4]; BLI at 8 μg/mL) [µg/mL]	MIC of Ceftazidime in combination with BLI ([4]; BLI at 8 μg/mL) [µg/mL]	MIC of Ceftobiprole in combination with BLI ([4]; BLI at 8 μg/mL) [µg/mL]	MIC of Imipenem in combination with BLI ([4]; BLI at 8 μg/mL) [µg/mL]	MIC of Meropenem in combination with BLI ([4]; BLI at 8 μg/mL) [µg/mL]	MIC of Imipenem in combination with BLI ([4]; BLI at 16 μg/mL) [µg/mL]	also measured
C[n+]1ccn(C[C@@]2(C)[C@H](C(=O)[O-])N3C(=O)C[C@H]3S2(=O)=O)n1 [Compound-1, 1-{[(2S,3S,5R)-2-Carboxy-3-methyl-4,4,7-trioxo-4-thia-1-azabicyclo[3.2.0]hept-3-yl]methyl}-3-methyl-1H-1,2,3-triazol-3-ium]	190	10.7	1	1	2	2	1	<0.06	0.25	<0.25	1	0.5	0.5	<0.125	<0.25	1	<0.25	0.5	<0.06	0.25	ZOI of CAZ + Compound-1 ([1]; Ceftazidime 30 μg + Compound-1 60 μg on same disk): 23 mm; ZOI of IPM + Compound-1 ([1]; Imipenem 10 μg + Compound-1 60 μg on same disk): 25 mm; MIC of Meropenem in combination with BLI ([4]; BLI at 16 μg/mL): <0.125 µg/mL; MIC [4]: > 8 µg/mL; Bacterial load (range), Doripenem + BLI [5]: 7.9E+05-1.4E+06 CFU/thigh; Bacterial load (range), Doripenem + BLI ([5]; listed as compound-1): 7.9E+05-1.3E+06 CFU/thigh; Bacterial load, Imipenem + BLI ([5]; Imipenem 140 mg/kg fractionated + BLI 140 mg/kg bolus, end point 6 h): 2.1E+05 CFU/thigh; ZOI of CAZ + Compound-1 ([6]; Ceftazidime 30 μg + Compound-1 60 μg on same disk, ATCC 25922): 25 mm; ZOI of IPM + Compound-1 ([6]; Imipenem 10 μg + Compound-1 60 μg on same disk, ATCC 25922): 26.5 mm; Zone of inhibition of compound-1 alone ([6]; β-lactamase negative strain, FIG. 1 (D)): does not show any zone of inhibition
C[C@]1(Cn2ccnn2)[C@H](C(=O)O)N2C(=O)C[C@H]2S1(=O)=O [Tazobactam]	980	71	16	8	32	32	2	1	8	8	32	16	2	4	4	32	16	1	0.5	1	MIC of Piperacillin with inhibitor (E. coli BAA-197 (TEM-12); inhibitor at 1 μg/mL): 64 µg/mL; MIC of Piperacillin with inhibitor (E. coli BAA-197 (TEM-12); inhibitor at 2 μg/mL): 8 µg/mL; MIC of Piperacillin with inhibitor (E. coli BAA-197 (TEM-12); inhibitor at 4 μg/mL): 4 µg/mL; MIC of Meropenem in combination with BLI ([4]; BLI at 4 μg/mL): 0.5 µg/mL; MIC of Meropenem in combination with BLI ([4]; BLI at 16 μg/mL): <0.125 µg/mL; MIC [4]: > 8 µg/mL; MIC of Piperacillin with inhibitor (E. coli BAA-201 (TEM-3); inhibitor at 1 μg/mL): 4 µg/mL; MIC of Piperacillin with inhibitor (E. coli BAA-201 (TEM-3); inhibitor at 2 μg/mL): 4 µg/mL; MIC of Piperacillin with inhibitor (E. coli BAA-201 (TEM-3); inhibitor at 4 μg/mL): 2 µg/mL; MIC of Piperacillin with inhibitor ([7]; inhibitor at 1 μg/mL): 8 µg/mL; MIC of Piperacillin with inhibitor ([7]; inhibitor at 2 μg/mL): 8 µg/mL; MIC of Piperacillin with inhibitor ([7]; inhibitor at 4 μg/mL): 4 µg/mL; Bacterial load (range), Doripenem + BLI [5]: 1.19 × 10^7-1.6 × 10^7 CFU/thigh; MIC of Piperacillin with inhibitor (E. coli BAA-200 (SHV-4); inhibitor at 1 μg/mL): >128 µg/mL; MIC of Piperacillin with inhibitor (E. coli BAA-200 (SHV-4); inhibitor at 2 μg/mL): >128 µg/mL; MIC of Piperacillin with inhibitor (E. coli BAA-200 (SHV-4); inhibitor at 4 μg/mL): 4 µg/mL
